The text below walks through data of patent US11957728B2, “Compositions for targeting receptor for advanced glycation end-products (RAGE) in a chronic inflammatory condition” (Sami-Sabinsa Group Limited, priority 2020, dated 2024).

The subject of series [1] is TNF-α. In words: TNF-α expression in pancreas of HFFD diabetic rats (qRT-PCR). The format is in vivo, Wistar Rats. The conditions noted are these: Diabetic 1.73 ± 0.34. From the text: (§1) Wistar Rats (150 g) were given High fat and fructose diet (HFFD) to induced type 2 diabetes (T2D). HFFD induces the development of diabetes associated with long term metabolic disorders including Fasting hyperglycemia, pre- and post-prandial hyperinsulinemia, Insulin resistance, Glucose intolerance and Dyslipidemia. Animals in HFFD show complications associated with T2D such as hepatic steatosis complicated by fibrosis, inflammation, hyperleptinemia and endothelial dysfunction. Rats were co administered with AC3 (100 mg/kg), BAP (200 μg/kg) BAP+AC3 (200 μg+100 mg/kg) BAP+AC3 (50 μg+100 mg/kg) and Metformin as positive control at 100 mg/kg along with HFFD for 90 days (Table 4). The organs were collected at the end of the experiment to evaluate the effect of the supplements on RAGE expression, oxidative stress and inflammation. […] from pancreas sample using the trizol method. […] First-strand cDNA was prepared from RNA samples using oligo dT primers and Superscript III reverse transcriptase (cDNA synthesis kit, Invitrogen™) Quantitative real-time PCR (qRT-PCR) was performed with SYBR Green I fluorescent dye using Light cycler 96 according to the manufacturer's instructions (Light Cycler® FastStart DNA Master SYBR Green I, Roche). […] The gene expression of the target gene in each test sample was determined by relative quantification using the comparative Ct (ΔΔCt) method.

Series [2] deals with inflammatory marker (TNF-α, IL6, IL-1β). In words: Inflammatory cytokine expression in pancreas of HFFD diabetic rats, overall statements. The format is in vivo, Wistar Rats. The conditions noted are these: BAP 200 ug/kg; AC3 100 mg/kg; combinations; p<0.05.
Description: as §1

Series [3] has as its system formation of AGE (bovine serum albumin + D-Ribose). In words: In vitro anti-glycation assay (BSA + D-Ribose, fluorescence Ex/Em 390/460 nm, 24 h). It counts as biochemical. From the text: Glycation is the non-enzymatic glycosylation reaction involving amino groups of proteins, lipids, or nucleic acids with sugar aldehyde or keto groups resulting in the formation of advanced glycosylation end-products (AGE) (Yamagishi et al. Pathologic role of dietary advanced glycation end products in cardiometabolic disorders, and therapeutic intervention, Nutrition, 32(2), 157-65 (2016)). The reactive carbonyls of sugars combine with amino groups of a protein, lipid or nucleic acid generating Schiff bases, which rearrange to Amadori products. In a series of slow reactions, the Amadori reactions, Schiff base and Maillard reactions, ultimately form AGE. Although glycation is slow in vivo, the glycation products have long-lasting effects. The effect of test substances on preventing the formation of AGE was evaluated in vitro
Anti-glycation activity was evaluated as described earlier (Sero et al. Tuning a 96-Well Microtiter Plate Fluorescence-Based Assay to Identify AGE Inhibitors in Crude Plant Extracts) Briefly, 10 μl of various sample concentrations were added to 40 μl of 25 mg/ml bovine serum albumin and 50 μl of 150 mg/ml D-Ribose in a 96 well black microplate. D-Ribose with buffer served as control. The plate containing the mixture was incubated for 24 h at 37° C. The advanced glycation product was detected by measuring the fluorescence intensity at Ex/Em of 390/460 nm by using BMG FLUOstar Optima Microplate reader.

Series [4] deals with IL-6. In words: IL-6 expression in pancreas of HFFD diabetic rats (qRT-PCR). The format is in vivo, Wistar Rats. The conditions noted are these: Diabetic 1.60 ± 0.09.
Description: as §1

Series [5] relates to IL-1β. In words: IL-1β expression in pancreas of HFFD diabetic rats (qRT-PCR). It counts as in vivo, Wistar Rats. The conditions noted are these: Diabetic 1.66 ± 0.04.
Description: as §1

The subject of series [6] is reactive oxygen species (ROS). Nature of the series: Oxidative stress in tissue homogenates (DCFDA fluorescence) of HFFD diabetic rats. It counts as in vivo, Wistar Rats. The conditions noted are these: for Relative Fluorescence Intensity, Average: Normal 6.5, Diabetic 23.8. The source says: Wistar Rats (150 g) were given High fat and fructose diet (HFFD) to induced type 2 diabetes (T2D). HFFD induces the development of diabetes associated with long term metabolic disorders including Fasting hyperglycemia, pre- and post-prandial hyperinsulinemia, Insulin resistance, Glucose intolerance and Dyslipidemia. Animals in HFFD show complications associated with T2D such as hepatic steatosis complicated by fibrosis, inflammation, hyperleptinemia and endothelial dysfunction.
Rats were co administered with AC3 (100 mg/kg), BAP (200 μg/kg) BAP+AC3 (200 μg+100 mg/kg) BAP+AC3 (50 μg+100 mg/kg) and Metformin as positive control at 100 mg/kg along with HFFD for 90 days (Table 4). The organs were collected at the end of the experiment to evaluate the effect of the supplements on RAGE expression, oxidative stress and inflammation.
The level of oxidative stress in tissue was estimated by using 20,70-dichlorofluorescin diacetate (DCFDA), a fluorogenic dye that measures hydroxyl, peroxyl, and other reactive oxygen species (ROS) activity. Briefly, an aliquot of the tissue homogenates (10 μL) were mixed with 150 μL ethanol solution of DCFDA to the final concentration of 10 mM. After incubation for 30 min at room temperature in dark, the fluorescence was measured with the excitation and emission wavelengths of 488 and 520 nm. Higher the fluorescence, higher is the oxidative stress. oxidative stress is decreased in the subject, and brought about by curcuminoids. BAP, or their combination.

The subject of series [7] is RAGE. Nature of the series: RAGE expression in pancreas of HFFD-induced diabetic rats (qRT-PCR). It counts as in vivo, Wistar Rats.
Description: as §1

The target in series [8] is DPP4 (Dipeptidyl-peptidase 4) (Homo sapiens, UniProt P27487). Nature of the series: Inhibition of DPP4 enzyme. The format is biochemical. More on the design: Anti-DPP4 activity: unit of the concentration uncertain.
Series [9] has as its system glycation. In words: Anti-glycation activity of curcuminoids at 24 and 72 hrs (320/405). It counts as biochemical.

DPP4 (Dipeptidyl-peptidase 4), sequence (P27487 whole entry, species assumed): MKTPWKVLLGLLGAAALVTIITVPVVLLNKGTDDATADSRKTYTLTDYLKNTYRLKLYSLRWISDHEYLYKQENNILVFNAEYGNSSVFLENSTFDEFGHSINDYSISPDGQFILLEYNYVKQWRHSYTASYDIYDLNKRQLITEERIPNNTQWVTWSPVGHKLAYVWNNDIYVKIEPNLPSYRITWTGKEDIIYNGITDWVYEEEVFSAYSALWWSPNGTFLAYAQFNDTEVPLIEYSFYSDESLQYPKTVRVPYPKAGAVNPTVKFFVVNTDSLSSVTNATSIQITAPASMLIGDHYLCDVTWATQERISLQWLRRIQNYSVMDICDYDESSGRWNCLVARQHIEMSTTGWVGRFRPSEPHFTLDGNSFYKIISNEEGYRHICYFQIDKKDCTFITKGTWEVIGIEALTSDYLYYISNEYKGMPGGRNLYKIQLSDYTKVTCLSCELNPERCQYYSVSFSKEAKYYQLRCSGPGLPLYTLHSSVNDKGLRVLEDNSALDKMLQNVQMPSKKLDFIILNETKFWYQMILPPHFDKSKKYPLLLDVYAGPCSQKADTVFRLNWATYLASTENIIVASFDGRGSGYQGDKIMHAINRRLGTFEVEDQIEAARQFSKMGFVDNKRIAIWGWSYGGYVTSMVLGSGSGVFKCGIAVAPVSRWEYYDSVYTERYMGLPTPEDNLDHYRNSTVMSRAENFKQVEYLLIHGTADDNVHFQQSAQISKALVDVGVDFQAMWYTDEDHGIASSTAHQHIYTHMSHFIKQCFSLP

As for `CCCCCCCCCCCCCCCC(=O)O[C@H]1CC[C@]2(C)[C@H]3CC=C4[C@@H]5CC(C)(C)CC[C@]5(C)CC[C@@]4(C)[C@]3(C)CC[C@H]2C1(C)C` [BAP, β-amyrin palmitate], the “Expression level of TNF-α (Normal = 1)” value in [1] (BAP 200 μg/kg) was 2.01 ± 0.31. For the same compound, the “Reduction of inflammatory cytokine expression in pancreas (in words)” value in series [2] is “not effective”. The “Percentage Inhibition” value was 0% in series [3] (BAP 1 μg/mL), 11.92% in series [3] (BAP 2 μg/mL) and 9.67% in [3] (BAP 4 μg/mL). Moreover, in series [3] (in vitro, BSA + ribose), the “Inhibition of AGE formation (in words)” value is “poor inhibitor of AGE formation”. The “Expression level of IL-6 (Normal = 1)” value in [4] (BAP 200 μg/kg) was 2.09 ± 0.08. Further, the “Expression level of IL-1β (Normal = 1)” value in series [5] (BAP 200 μg/kg) was determined as 1.62 ± 0.11. Besides, the “Relative Fluorescence Intensity, Average” value in series [6] (BAP 200 μg/kg) stood at 11.5. Besides, in [6] (HFFD rats, 90 days), the “Decrease of oxidative stress from the diabetic control” value was 2 fold. In addition, the “Effect on pancreatic RAGE expression” value in [7] (BAP 200 μg/kg, 90 days with HFFD, vs diabetic rats) is recorded as “no effect”.
As to `O=C(/C=C/c1ccc(O)cc1)CC(=O)/C=C/c1ccc(O)cc1` [BDMC, Bisdemethoxycurcumin], the Anti-DPP4 activity in [8] (Conc 12.5 (unit uncertain)) was found to be 43.58; in series [8] (Conc 25 (unit uncertain)), 56.07; in series [8] (Conc 50 (unit uncertain)) it was 58.55.
Regarding `COc1cc(/C=C/C(=O)CC(=O)/C=C/c2ccc(O)c(OC)c2)ccc1O` [Curcumin, curcumin], the figures for the Anti-DPP4 activity in [8] (Conc 12.5 (unit uncertain)), in series [8] (Conc 25 (unit uncertain)) and in [8] (Conc 50 (unit uncertain)) were 14.11, 48.88 and 70.29, respectively. For the same compound, the “Effectiveness against DPP4 (comparison in words)” value in series [8] (Table 11) is recorded as “as effective as AC3”. The Anti-Glycation activity in series [9] (24 hrs (320/405), Conc 0.3125 mg/mL) is 29.67; in series [9] (24 hrs (320/405), Conc 0.625 mg/mL), 35.90; in series [9] (72 hrs (320/405), Conc 0.625 mg/mL), 44.42.
As to `COc1cc(/C=C/C(O)=C/C(=O)/C=C/c2ccc(O)cc2)ccc1O` [DMC, demethoxycurcumin], the results for the Anti-DPP4 activity in [8] (Conc 12.5 (unit uncertain)), in series [8] (Conc 25 (unit uncertain)) and in [8] (Conc 50 (unit uncertain)) were 23.56, 39.86 and 62.60, respectively.
As for `CN(C)C(=N)N=C(N)N` [Metformin], the “Expression level of TNF-α (Normal = 1)” value in series [1] (Metformin 100 mg/kg) is listed as 0.91 ± 0.22. For the same compound, the “Expression level of IL-6 (Normal = 1)” value in series [4] (Metformin 100 mg/kg) is 1.04 ± 0.12. In addition, the “Expression level of IL-1β (Normal = 1)” value in [5] (Metformin 100 mg/kg) came to 0.89 ± 0.05. In addition, the “Relative Fluorescence Intensity, Average” value in series [6] (Metformin 100 mg/kg) turned out to be 28.94. Besides, the “Reduction of RAGE expression” value in series [7] (metformin 100 mg/kg, pancreas) was found to be 6.9%.
